System: A375-NRAS^Q61K cells
Experiment: CTGlo Cell Viability Assay, A375-NRAS^Q61K (A375.11) cells, 96 hours
Assay type: cell-based, human
Conditions: Homo sapiens, 96 h, A375.11 (A375-NRAS^Q61K) cells; for Emax: lowest % viability achieved
In short: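 A375 cells carrying BRAF V600E and NRAS Q61K were seeded at 250 cells/well with a 10-point half-log dose series (max 10 μM final). After 96 h at 37 °C, viability was read as ATP luminescence (CellTiter-Glo), background-subtracted and normalized to DMSO (100%). GI50 from 4-parameter fit; Emax is the lowest % viability.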

Row | GI50 | SMILES | Emax
1 | < 1000 nM | CCN(C)S(=O)(=O)Nc1ccc(F)c(Oc2ccc3ncn(C4CC5(CCN(C6CCN(c7cc8c(cc7F)c(N7CCC(=O)NC7=O)nn8C)CC6)CC5)C4)c(=O)c3c2)c1C#N [Compound 156, 6-[2-cyano-3-[[ethyl(methyl)sulfamoyl]amino]-6-fluoro-phenoxy]-3-[7-[1-[3-(2,4-dioxohexahydropyrimidin-1-yl)-5-fluoro-1-methyl-indazol-6-yl]-4-piperidyl]-7-azaspiro[3.5]nonan-2-yl]-4-oxo-quinazoline] | 50 to 90%
2 | < 1000 nM | CO[C@H]1CCN(S(=O)(=O)Nc2ccc(F)c(Oc3ccc4ncn([C@H]5COC6(CCN(C7CC8(C7)CN(c7cc9c(cc7F)c(N7CCC(=O)NC7=O)nn9C)C8)CC6)C5)c(=O)c4c3)c2C#N)C1 [Compound 157, (3S)-N-[2-cyano-3-[3-[(3R)-8-[2-[3-(2,4-dioxohexahydropyrimidin-1-yl)-5-fluoro-1-methyl-indazol-6-yl]-2-azaspiro[3.3]heptan-6-yl]-1-oxa-8-azaspiro[4.5]decan-3-yl]-4-oxo-quinazolin-6-yl]oxy-4-fluoro-phenyl]-3-methoxy-pyrrolidine-1-sulfonamide] | 50 to 90%
3 | < 1000 nM | CCN(C)S(=O)(=O)Nc1ccc(F)c(Oc2ccc3ncc([C@H]4COC5(CCN(C6CC7(C6)CN(c6cc8c(cc6F)c(N6CCC(=O)NC6=O)nn8C)C7)CC5)C4)nc3c2)c1C#N [Compound 158, (3S)-3-[7-[2-cyano-3-[[ethyl(methyl)sulfamoyl]amino]-6-fluoro-phenoxy]quinoxalin-2-yl]-8-[2-[3-(2,4-dioxohexahydropyrimidin-1-yl)-5-fluoro-1-methyl-indazol-6-yl]-2-azaspiro[3.3]heptan-6-yl]-1-oxa-8-azaspiro[4.5]decane] | 50 to 90%
4 | < 1000 nM | CCN(C)S(=O)(=O)Nc1ccc(F)c(Oc2ccc3ncc(C4CC5(CCN(C6CC7(C6)CN(c6cc8c(cc6F)c(N6CCC(=O)NC6=O)nn8C)C7)CC5)C4)nc3c2)c1C#N (centres unmarked) [Compound 177, 7-[2-cyano-3-[[ethyl(methyl)sulfamoyl]amino]-6-fluoro-phenoxy]-2-[7-[2-[3-(2,4-dioxohexahydropyrimidin-1-yl)-5-fluoro-1-methyl-indazol-6-yl]-2-azaspiro[3.3]heptan-6-yl]-7-azaspiro[3.5]nonan-2-yl]quinoxaline] | 50 to 90%
5 | 1000 to 10000 nM | CCN(C)S(=O)(=O)Nc1ccc(F)c(Oc2ccc3ncn(C4CC5(CCN(C6CC7(CCN(c8cc9c(cc8F)c(N8CCC(=O)NC8=O)nn9C)CC7)C6)CC5)C4)c(=O)c3c2)c1C#N (centres unmarked) [Compound 198, 6-[2-cyano-3-[[ethyl(methyl)sulfamoyl]amino]-6-fluoro-phenoxy]-3-[7-[7-[3-(2,4-dioxohexahydropyrimidin-1-yl)-5-fluoro-1-methyl-indazol-6-yl]-7-azaspiro[3.5]nonan-2-yl]-7-azaspiro[3.5]nonan-2-yl]-4-oxo-quinazoline] | < 50%
6 | < 1000 nM | COC1CN(S(=O)(=O)Nc2ccc(F)c(Oc3ccc4ncn([C@H]5COC6(CCN(C7CC8(C7)CN(c7cc9c(cc7F)c(N7CCC(=O)NC7=O)nn9C)C8)CC6)C5)c(=O)c4c3)c2C#N)C1 [Compound 246, N-[2-cyano-3-[3-[(3R)-8-[2-[3-(2,4-dioxohexahydropyrimidin-1-yl)-5-fluoro-1-methyl-indazol-6-yl]-2-azaspiro[3.3]heptan-6-yl]-1-oxa-8-azaspiro[4.5]decan-3-yl]-4-oxo-quinazolin-6-yl]oxy-4-fluoro-phenyl]-3-methoxy-azetidine-1-sulfonamide] | < 50%
7 | < 1000 nM | Cn1nc(N2CCC(=O)NC2=O)c2cc(F)c(N3CC4(CC(N5CCC6(CC5)CC(n5cnc7ccc(Oc8c(F)ccc(NS(=O)(=O)C9CCCC9)c8C#N)cc7c5=O)C6)C4)C3)cc21 [Compound 250, N-[2-cyano-3-[3-[7-[2-[3-(2,4-dioxohexahydropyrimidin-1-yl)-5-fluoro-1-methyl-indazol-6-yl]-2-azaspiro[3.3]heptan-6-yl]-7-azaspiro[3.5]nonan-2-yl]-4-oxo-quinazolin-6-yl]oxy-4-fluoro-phenyl]cyclopentanesulfonamide] | < 50%
8 | < 1000 nM | Cn1nc(N2CCC(=O)NC2=O)c2cc(F)c(N3CC4(CC(N5CCC6(CC5)C[C@@H](n5cnc7ccc(Oc8c(F)ccc(NS(=O)(=O)N9CC%10(CCC%10)C9)c8C#N)cc7c5=O)CO6)C4)C3)cc21 [Compound 254, N-[2-cyano-3-[3-[(3R)-8-[2-[3-(2,4-dioxohexahydropyrimidin-1-yl)-5-fluoro-1-methyl-indazol-6-yl]-2-azaspiro[3.3]heptan-6-yl]-1-oxa-8-azaspiro[4.5]decan-3-yl]-4-oxo-quinazolin-6-yl]oxy-4-fluoro-phenyl]-2-azaspiro[3.3]heptane-2-sulfonamide] | < 50%
9 | < 1000 nM | Cn1nc(N2CCC(=O)NC2=O)c2cc(F)c(N3CC4(CC(N5CCC6(CC5)CC(n5cnc7ccc(Oc8c(F)ccc(NS(=O)(=O)C9CCC9)c8C#N)cc7c5=O)C6)C4)C3)cc21 [Compound 259, N-[2-cyano-3-[3-[7-[2-[3-(2,4-dioxohexahydropyrimidin-1-yl)-5-fluoro-1-methyl-indazol-6-yl]-2-azaspiro[3.3]heptan-6-yl]-7-azaspiro[3.5]nonan-2-yl]-4-oxo-quinazolin-6-yl]oxy-4-fluoro-phenyl]cyclobutanesulfonamide] | < 50%
10 | < 1000 nM | Cn1nc(N2CCC(=O)NC2=O)c2cc(F)c(N3CC4(CC(N5CCC6(CC5)CC(n5cnc7ccc(Oc8c(F)ccc(NS(=O)(=O)C9CC9)c8C#N)cc7c5=O)C6)C4)C3)cc21 [Compound 260, N-[2-cyano-3-[3-[7-[2-[3-(2,4-dioxohexahydropyrimidin-1-yl)-5-fluoro-1-methyl-indazol-6-yl]-2-azaspiro[3.3]heptan-6-yl]-7-azaspiro[3.5]nonan-2-yl]-4-oxo-quinazolin-6-yl]oxy-4-fluoro-phenyl]cyclopropanesulfonamide] | 50 to 90%
11 | < 1000 nM | Cn1nc(N2CCC(=O)NC2=O)c2cc(F)c(N3CC4(CC(N5CCC6(CC5)CC(n5cnc7ccc(Oc8c(F)ccc(NS(=O)(=O)N9CC[C@@H](F)C9)c8C#N)cc7c5=O)C6)C4)C3)cc21 [Compound 261, (3R)-N-[2-cyano-3-[3-[7-[2-[3-(2,4-dioxohexahydropyrimidin-1-yl)-5-fluoro-1-methyl-indazol-6-yl]-2-azaspiro[3.3]heptan-6-yl]-7-azaspiro[3.5]nonan-2-yl]-4-oxo-quinazolin-6-yl]oxy-4-fluoro-phenyl]-3-fluoro-pyrrolidine-1-sulfonamide] | < 50%
12 | < 1000 nM | CC(C)S(=O)(=O)Nc1ccc(F)c(Oc2ccc3ncn(C4CC5(CCN(C6CC7(C6)CN(c6cc8c(cc6F)c(N6CCC(=O)NC6=O)nn8C)C7)CC5)C4)c(=O)c3c2)c1C#N (centres unmarked) [Compound 273, N-[2-cyano-3-[3-[7-[2-[3-(2,4-dioxohexahydropyrimidin-1-yl)-5-fluoro-1-methyl-indazol-6-yl]-2-azaspiro[3.3]heptan-6-yl]-7-azaspiro[3.5]nonan-2-yl]-4-oxo-quinazolin-6-yl]oxy-4-fluoro-phenyl]propane-2-sulfonamide] | < 50%
13 | < 1000 nM | Cn1nc(N2CCC(=O)NC2=O)c2cc(F)c(N3CC4(CC(N5CCC6(CC5)CC(n5cnc7ccc(Oc8c(F)ccc(NS(=O)(=O)N9C[C@H]%10C[C@H]%10C9)c8C#N)cc7c5=O)C6)C4)C3)cc21 (stereo partly drawn) [Compound 277, (1R,5S)-N-[2-cyano-3-[3-[7-[2-[3-(2,4-dioxohexahydropyrimidin-1-yl)-5-fluoro-1-methyl-indazol-6-yl]-2-azaspiro[3.3]heptan-6-yl]-7-azaspiro[3.5]nonan-2-yl]-4-oxo-quinazolin-6-yl]oxy-4-fluoro-phenyl]-3-azabicyclo[3.1.0]hexane-3-sulfonamide] | 50 to 90%

From patent publication US20260297060A1, “COMPOUNDS FOR THE DEGRADATION OF MUTANT BRAF” (C4 THERAPEUTICS, INC., priority 2023, published 2026)
